Reference: US10851083B2, “Benzoimidazoles as prolyl hydroxylase inhibitors” (Janssen Pharmaceutica NV, priority 2008, dated 2020)

Legend:
human PHD2181-417 = human PHD2181-417 (Homo sapiens (Human), UniProt Q9GZT9); assay: PHD2 enzyme activity assay ([14C]-succinic acid production); format: biochemical; details: PHD2181-417 polypeptide, HIF-1α peptide 10 μM, [5-14C]-2-oxoglutaric acid, 30 min pre-incubation, tested 10 μM to 3 nM;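 also: reaction ran 10 min with compound in Tris pH 7.5 buffer with catalase, DTT and ascorbate, labelled succinate freed of leftover 2-oxoglutarate by DNP precipitation, then beta counted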
Hep-3B cells = assay: Cellular assay: EPO secretion in Hep-3B cells; format: cell-based, human; set-up: EPO secretion, % of control compound: dose or concentration left out as unconfirmed; details: 24 h, EPO secretion as percentage of control compound 7-[(4-Chloro-phenyl)-(5-methyl-isoxazol-3-ylamino)-methyl]-quinolin-8-ol; for EPO secretion, % of control compound: Homo sapiens, Hep3B, read-out: Cellular % EPO Stimulation

Chain of human PHD2181-417 (Q9GZT9 181-417): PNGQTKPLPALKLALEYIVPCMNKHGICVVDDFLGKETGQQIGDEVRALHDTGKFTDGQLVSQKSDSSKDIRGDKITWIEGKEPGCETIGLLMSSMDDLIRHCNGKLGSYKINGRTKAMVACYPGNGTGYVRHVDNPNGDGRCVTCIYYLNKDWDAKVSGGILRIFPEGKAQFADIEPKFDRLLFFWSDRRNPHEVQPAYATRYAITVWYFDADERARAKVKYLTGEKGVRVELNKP

| Enzyme pIC50 (human PHD2181-417) | IC50 (human PHD2181-417; read-out: Enzyme pIC50 (converted)) | Structure (SMILES) | EPO secretion, % of control compound (Hep-3B cells) | Cellular % EPO Stimulation (Hep-3B cells; compound at 100 μM (10 μM or 100 μM)) |
| --- | --- | --- | --- | --- |
| 6.5 |  | CCCNc1cc2nc(-n3cc(C(=O)O)cn3)[nH]c2cc1Cl [Example 131, 1-(6-Chloro-5-propylamino-1H-benzoimidazol-2-yl)-1H-pyrazole-4-carboxylic Acid] | 89% |  |
| 6.98 |  | O=C(O)c1cnn(-c2nc3cc(OC(F)(F)F)c(Cl)cc3[nH]2)c1 [Example 113, 1-(6-Chloro-5-trifluoromethoxy-1H-benzoimidazol-2-yl)-1H-pyrazole-4-carboxylic Acid] | 109% |  |
| 5.3 |  | O=C(O)c1cnn(-c2nc3c(Cl)ncnc3[nH]2)c1 [Example 185, 1-(6-Chloro-9H-purin-8-yl)-1H-pyrazole-4-carboxylic Acid] | 11.7% |  |
| 6.8 |  | O=C(O)c1cnn(-c2nc3cc(NS(=O)(=O)C4CC4)c(Cl)cc3[nH]2)c1 [Example 135, 1-(6-Chloro-5-cyclopropanesulfonylamino-1H-benzoimidazol-2-yl)-1H-pyrazole-4-carboxylic Acid] | 17% |  |
| 6.8 |  | O=C(O)c1cnn(-c2nc3cc(NS(=O)(=O)c4ccccc4)c(Cl)cc3[nH]2)c1 [Example 138, 1-(5-Benzenesulfonylamino-6-chloro-1H-benzoimidazol-2-yl)-1H-pyrazole-4-carboxylic Acid] | 19% |  |
| 7.5 |  | CCCS(=O)(=O)c1cc2[nH]c(-n3cc(C(=O)O)cn3)nc2cc1Cl [Example 102, 1-[5-Chloro-6-(propane-1-sulfonyl)-1H-benzoimidazol-2-yl]-1H-pyrazole-4-carboxylic Acid] | 54.9% |  |
| 6.5 |  | O=C(O)c1cnn(-c2nc3cc(SCc4ccc(Cl)cc4)c(Cl)cc3[nH]2)c1 [Example 163, 1-[6-Chloro-5-(4-chloro-benzylsulfanyl)-1H-benzoimidazol-2-yl]-1H-pyrazole-4-carboxylic Acid] | 37% |  |
| 7.5 |  | COc1ccc(Sc2cc3nc(-n4cc(C(=O)O)cn4)[nH]c3cc2C(F)(F)F)cc1 [Example 160, 1-[5-(4-Methoxy-phenylsulfanyl)-6-trifluoromethyl-1H-benzoimidazol-2-yl]-1H-pyrazole-4-carboxylic Acid] | 36.1% |  |
| 6.5 |  | CCOc1cc2[nH]c(-n3cc(C(=O)O)cn3)nc2cc1F [Example 119, 1-(6-Ethoxy-5-fluoro-1H-benzoimidazol-2-yl)-1H-pyrazole-4-carboxylic Acid] | 69% |  |

Further lines, the molecule ahead of its results:

| Structure (SMILES) | Enzyme pIC50 (human PHD2181-417) | IC50 (human PHD2181-417; read-out: Enzyme pIC50 (converted)) | EPO secretion, % of control compound (Hep-3B cells) | Cellular % EPO Stimulation (Hep-3B cells; compound at 100 μM (10 μM or 100 μM)) |
| --- | --- | --- | --- | --- |
| O=C(O)c1cnn(-c2nc3cc(S(=O)(=O)Cc4ccc(F)cc4)c(Cl)cc3[nH]2)c1 [Example 92, 1-[6-Chloro-5-(4-fluoro-phenylmethanesulfonyl)-1H-benzoimidazol-2-yl]-1H-pyrazole-4-carboxylic Acid] | 7.5 |  | 61.2% |  |
| O=C(O)c1cnn(-c2nc3c(Cl)cc(Cl)cc3[nH]2)c1 [Example 34, 1-(4,6-Dichloro-1H-benzoimidazol-2-yl)-1H-pyrazole-4-carboxylic Acid] | 6.5 |  | 56.3% |  |
| O=C(O)c1cnn(-c2nc3cc(Oc4ccccc4)c(Cl)cc3[nH]2)c1 [Example 57, 1-(6-Chloro-5-phenoxy-1H-benzoimidazol-2-yl)-1H-pyrazole-4-carboxylic Acid] | 6.9 |  | 55% |  |
| Cc1nn(-c2nc3cc(Cl)c(Cl)cc3[nH]2)c(C)c1C(=O)O [Example 22, 1-(5,6-Dichloro-1H-benzoimidazol-2-yl)-3,5-dimethyl-1H-pyrazole-4-carboxylic Acid] |  | > 100 µM |  | 0.47% |
| O=C(O)c1cnn(-c2nc3c(Br)c(F)c(F)cc3[nH]2)c1 [Example 32, 1-(4-Bromo-5,6-difluoro-1H-benzoimidazol-2-yl)-1H-pyrazole-4-carboxylic Acid] | 6.7 |  | 33% |  |
| O=C(O)c1cnn(-c2nc3cc(N4CCOCC4)c(Cl)cc3[nH]2)c1 [Example 45, 1-(6-Chloro-5-morpholin-4-yl-1H-benzoimidazol-2-yl)-1H-pyrazole-4-carboxylic Acid] | 6.6 |  | 30.9% |  |
| Nc1cc2nc(-n3cc(C(=O)O)cn3)[nH]c2cc1Cl [Example 41, 1-(5-Amino-6-chloro-1H-benzoimidazol-2-yl)-1H-pyrazole-4-carboxylic Acid] | 6.4 |  | 30% |  |
| O=C(O)c1cnn(-c2nc3cc(S(=O)(=O)CCc4ccccc4)c(Cl)cc3[nH]2)c1 [Example 94, 1-[6-Chloro-5-(2-phenyl-ethanesulfonyl)-1H-benzoimidazol-2-yl]-1H-pyrazole-4-carboxylic Acid] | 7.4 |  | 65.1% |  |
| O=C(O)c1cnn(-c2nc3c(Cl)cccc3[nH]2)c1 [Example 27, 1-(4-Chloro-1H-benzoimidazol-2-yl)-1H-pyrazole-4-carboxylic Acid] | 6.1 |  | 19.1% |  |
| CC[S+]([O-])c1cc2[nH]c(-n3cc(C(=O)O)cn3)nc2cc1Cl (centres unmarked) [Example 95, 1-(5-Chloro-6-ethanesulfinyl-1H-benzoimidazol-2-yl)-1H-pyrazole-4-carboxylic Acid] | 7.2 |  | 46.3% |  |
| Cc1cc(C)c(CS(=O)(=O)c2cc3nc(-n4cc(C(=O)O)cn4)[nH]c3cc2Cl)c(C)c1 [Example 90, 1-[6-Chloro-5-(2,4,6-trimethyl-phenylmethanesulfonyl)-1H-benzoimidazol-2-yl]-1H-pyrazole-4-carboxylic Acid] | 7.3 |  | 8.25% |  |
| O=C(O)c1cnn(-c2nc3cc(S(=O)(=O)c4ccc(Cl)c(Cl)c4)c(Cl)cc3[nH]2)c1 [Example 87, 1-[6-Chloro-5-(3,4-dichloro-benzenesulfonyl)-1H-benzoimidazol-2-yl]-1H-pyrazole-4-carboxylic Acid] | 6.68 |  | 32.4% |  |
| O=C(O)c1cnn(-c2nc3cc(SCc4ccccc4Cl)c(Cl)cc3[nH]2)c1 [Example 69, 1-[6-Chloro-5-(2-chloro-benzylsulfanyl)-1H-benzoimidazol-2-yl]-1H-pyrazole-4-carboxylic Acid] | 6.8 |  | 85.3% |  |
| COc1ccc(CS(=O)(=O)c2cc3nc(-n4cc(C(=O)O)cn4)[nH]c3cc2Cl)cc1 [Example 91, 1-[6-Chloro-5-(4-methoxy-phenylmethanesulfonyl)-1H-benzoimidazol-2-yl]-1H-pyrazole-4-carboxylic Acid] | 7.7 |  | 22% |  |
| O=C(O)c1cnn(-c2nc3cc(S(=O)(=O)c4ccccc4)c(Cl)cc3[nH]2)c1 [Example 83, 1-(5-Benzenesulfonyl-6-chloro-1H-benzoimidazol-2-yl)-1H-pyrazole-4-carboxylic Acid] | 7.57 |  | 96.7% |  |
| O=C(O)c1cnn(-c2nc3cc(Cl)c(Cl)cc3[nH]2)c1 [Example 2, 1-(5,6-Dichloro-1H-benzoimidazol-2-yl)-1H-pyrazole-4-carboxylic Acid] | 6.9 |  | 152% |  |
